In US10793564B2, “Amino acid compounds and methods of use” (Pliant Therapeutics, Inc., priority 2018, dated 2020) one finds IC50 data, which are given here for 26 compounds.

This test deals with recombinant human integrin αVβ6 (Homo sapiens (Human), UniProt P06756+P18564). Description: Solid phase integrin αVβ6 binding assay. As to conditions: inhibition of recombinant TGFβ1 LAP binding to coated integrin, IC50 presented in four ranges, read-out: αvβ6 Inhibition IC50 (nM) - range. The gist of the method: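 Plates coated with recombinant human αVβ6 (2 μg/mL) and blocked; compounds competed with TGFβ1 LAP (0.67 μg/mL) in Mn2+ (0.5 mM)/BSA/sucrose TBS for 2 h at 25° C. Bound LAP detected by biotin anti-LAP and peroxidase-streptavidin; IC50 by four-parameter logistic fit.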
recombinant human integrin αVβ6, sequence (P06756 31-992): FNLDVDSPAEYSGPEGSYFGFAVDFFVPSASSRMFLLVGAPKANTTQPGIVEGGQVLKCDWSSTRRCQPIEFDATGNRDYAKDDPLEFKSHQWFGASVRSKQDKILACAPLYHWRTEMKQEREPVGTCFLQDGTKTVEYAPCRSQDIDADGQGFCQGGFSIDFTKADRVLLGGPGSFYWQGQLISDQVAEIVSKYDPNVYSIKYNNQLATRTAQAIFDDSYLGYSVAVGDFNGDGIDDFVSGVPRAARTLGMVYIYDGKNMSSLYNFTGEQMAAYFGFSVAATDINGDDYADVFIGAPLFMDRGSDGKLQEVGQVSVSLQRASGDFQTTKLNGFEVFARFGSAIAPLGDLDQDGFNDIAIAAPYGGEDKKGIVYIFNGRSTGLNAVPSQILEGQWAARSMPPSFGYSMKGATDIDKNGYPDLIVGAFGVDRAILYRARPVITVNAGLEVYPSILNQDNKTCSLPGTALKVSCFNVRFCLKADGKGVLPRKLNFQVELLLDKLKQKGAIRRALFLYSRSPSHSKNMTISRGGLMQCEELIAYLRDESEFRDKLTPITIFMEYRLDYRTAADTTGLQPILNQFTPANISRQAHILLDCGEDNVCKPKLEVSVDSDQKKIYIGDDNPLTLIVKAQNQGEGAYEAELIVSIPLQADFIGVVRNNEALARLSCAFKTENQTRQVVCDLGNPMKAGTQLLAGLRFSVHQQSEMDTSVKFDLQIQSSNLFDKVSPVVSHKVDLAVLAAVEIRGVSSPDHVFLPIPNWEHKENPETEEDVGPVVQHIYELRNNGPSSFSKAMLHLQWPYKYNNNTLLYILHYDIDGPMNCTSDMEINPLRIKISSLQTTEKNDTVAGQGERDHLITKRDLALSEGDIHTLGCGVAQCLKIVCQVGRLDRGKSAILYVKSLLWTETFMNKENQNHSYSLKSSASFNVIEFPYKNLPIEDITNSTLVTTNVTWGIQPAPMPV
recombinant human integrin αVβ6, sequence (P18564 22-707): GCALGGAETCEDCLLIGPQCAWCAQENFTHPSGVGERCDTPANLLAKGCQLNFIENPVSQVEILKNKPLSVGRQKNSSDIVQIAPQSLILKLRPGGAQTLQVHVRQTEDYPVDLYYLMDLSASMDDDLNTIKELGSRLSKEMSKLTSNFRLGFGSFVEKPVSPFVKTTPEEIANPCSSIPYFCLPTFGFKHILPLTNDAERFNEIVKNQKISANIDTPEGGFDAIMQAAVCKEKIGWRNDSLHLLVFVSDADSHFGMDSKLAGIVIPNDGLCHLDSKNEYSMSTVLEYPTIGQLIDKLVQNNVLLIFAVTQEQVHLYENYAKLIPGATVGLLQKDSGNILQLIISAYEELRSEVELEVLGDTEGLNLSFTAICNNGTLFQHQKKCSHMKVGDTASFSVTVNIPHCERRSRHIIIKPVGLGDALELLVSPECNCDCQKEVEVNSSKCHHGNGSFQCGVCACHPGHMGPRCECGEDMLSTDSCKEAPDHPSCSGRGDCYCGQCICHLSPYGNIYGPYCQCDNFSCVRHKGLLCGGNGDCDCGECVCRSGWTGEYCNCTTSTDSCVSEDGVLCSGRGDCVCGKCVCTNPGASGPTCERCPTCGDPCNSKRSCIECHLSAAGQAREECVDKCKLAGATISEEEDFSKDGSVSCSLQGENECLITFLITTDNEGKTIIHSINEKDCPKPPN
With `COC[C@@H](F)CN(CCCCc1ccc2c(n1)NCCC2)CC[C@H](Nc1nc(-c2cccnc2)nc2ccccc12)C(=O)O` [Compound 109, (S)-4-(((S)-2-fluoro-3-methoxypropyl) (4-(5,6,7,8-tetrahydro-1,8-naphthyridin-2-yl)butyl)amino)-2-((2-(pyridin-3-yl)quinazolin-4-yl)amino) butanoic Acid], the IC50 (usually the concentration that inhibits the measured activity by half) is less than 50 nM.

Take `COCCN(CCCCc1ccc2c(n1)NCCC2)CC[C@H](Nc1nccnc1C#N)C(=O)O` [Compound 67, (S)-2-((3-cyanopyrazin-2-yl)amino)-4-((2-methoxyethyl) (4-(5,6,7,8-tetrahydro-1,8-naphthyridin-2-yl)butyl)amino) butanoic Acid]: the IC50 is less than 50 nM. For `CO[C@H](C)CN(CCCCc1ccc2c(n1)NCCC2)CC[C@H](Nc1ncc(F)cn1)C(=O)O` [Compound 78, (S)-2-((5-fluoropyrimidin-2-yl)amino)-4-(((R)-2-methoxypropyl) (4-(5,6,7,8-tetrahydro-1,8-naphthyridin-2-yl)butyl)amino) butanoic Acid], the IC50 is less than 50 nM.

For `N#Cc1cnc(N[C@@H](CCN(CCCCc2ccc3c(n2)NCCC3)CC(F)F)C(=O)O)nc1` [Compound 118, (S)-2-((5-cyanopyrimidin-2-yl)amino)-4-((2,2-difluoroethyl) (4-(5,6,7,8-tetrahydro-1,8-naphthyridin-2-yl)butyl)amino) butanoic Acid], the IC50 was more than 1000 nM. Regarding `CO[C@H](C)CN(CCCCc1ccc2c(n1)NCCC2)CC[C@H](Nc1nc(C)nc2cc(F)ccc12)C(=O)O` [Compound 65, (S)-2-((7-fluoro-2-methylquinazolin-4-yl)amino)-4-(((R)-2-methoxypropyl) (4-(5,6,7,8-tetrahydro-1,8-naphthyridin-2-yl)butyl)amino) butanoic Acid], the IC50 was less than 50 nM. Consider `O=C(O)[C@H](CCN(CCCCc1ccc2c(n1)NCCC2)CCC(F)F)Nc1ncnc2ccccc12` [Compound 29, (S)-4-((3,3-difluoropropyl) (4-(5,6,7,8-tetrahydro-1,8-naphthyridin-2-yl)butyl)amino)-2-(quinazolin-4-ylamino) butanoic Acid], for which the IC50 is less than 50 nM.

Turning to `COC[C@@H](F)CN(CCCCc1ccc2c(n1)NCCC2)CC[C@H](Nc1ncncc1-c1ccccc1)C(=O)O` [Compound 110, (S)-4-(((S)-2-fluoro-3-methoxypropyl) (4-(5,6,7,8-tetrahydro-1,8-naphthyridin-2-yl)butyl)amino)-2-((5-phenylpyrimidin-4-yl)amino) butanoic Acid], the IC50 is less than 50 nM.

As for `Cn1ncc2c(N[C@@H](CCN(CCCCc3ccc4c(n3)NCCC4)CCC(F)F)C(=O)O)ncnc21` [Compound 133, (S)-4-((3,3-difluoropropyl) (4-(5,6,7,8-tetrahydro-1,8-naphthyridin-2-yl)butyl)amino)-2-((1-methyl-1H-pyrazolo[3,4-d]pyrimidin-4-yl)amino) butanoic Acid], the IC50 was in the range of 50 to 250 nM. For the compound `O=C(O)[C@H](CCN(CCCCc1ccc2c(n1)NCCC2)CCOc1ccccc1)Nc1ncc(Br)cn1` [Compound 83, (S)-2-((5-bromopyrimidin-2-yl)amino)-4-((2-phenoxyethyl) (4-(5,6,7,8-tetrahydro-1,8-naphthyridin-2-yl)butyl)amino) butanoic Acid], the IC50 was less than 50 nM.

In the case of `Cc1nc(N[C@@H](CCN(CCCCc2ccc3c(n2)NCCC3)CC2CC(F)(F)C2)C(=O)O)c2ccc(F)cc2n1` [Compound 33, (S)-4-(((3,3-difluorocyclobutyl)methyl) (4-(5,6,7,8-tetrahydro-1,8-naphthyridin-2-yl)butyl)amino)-2-((7-fluoro-2-methylquinazolin-4-yl)amino) butanoic Acid], the IC50 was less than 50 nM. Regarding `COCCN(CCCCc1ccc2c(n1)NCCC2)CC[C@H](Nc1ncnc2cc(C(F)(F)F)ccc12)C(=O)O` [Compound 13, (S)-4-((2-methoxyethyl) (4-(5,6,7,8-tetrahydro-1,8-naphthyridin-2-yl)butyl)amino)-2-((7-(trifluoromethyl)quinazolin-4-yl)amino) butanoic Acid], the IC50 was in the range of 50 to 250 nM.

Turning to `Cn1ncc2c(N[C@@H](CCN(CCCCc3ccc4c(n3)NCCC4)CCOc3ccccc3)C(=O)O)ncnc21` [Compound 82, (S)-2-((1-methyl-1H-pyrazolo[3,4-d]pyrimidin-4-yl)amino)-4-((2-phenoxyethyl) (4-(5,6,7,8-tetrahydro-1,8-naphthyridin-2-yl)butyl)amino) butanoic Acid], the IC50 was less than 50 nM. On to `COCCN(CCCCc1ccc2c(n1)NCCC2)CC[C@H](Nc1nccc2ccccc12)C(=O)O` [Compound 34, (S)-2-(isoquinolin-1-ylamino)-4-((2-methoxyethyl) (4-(5,6,7,8-tetrahydro-1,8-naphthyridin-2-yl)butyl)amino) butanoic Acid], for which the IC50 is more than 1000 nM. For the compound `Cn1ncc2c(N[C@@H](CCN(CCCCc3ccc4c(n3)NCCC4)CCOc3ccc(F)cc3)C(=O)O)ncnc21` [Compound 123, (S)-4-((2-(4-fluorophenoxy)ethyl) (4-(5,6,7,8-tetrahydro-1,8-naphthyridin-2-yl)butyl)amino)-2-((1-methyl-1H-pyrazolo[3,4-d]pyrimidin-4-yl)amino) butanoic Acid], the IC50 is less than 50 nM. Consider `COC[C@@H](F)CN(CCCCc1ccc2c(n1)NCCC2)CC[C@H](Nc1nc(C)nc2cc(F)ccc12)C(=O)O` [Compound 32, (S)-2-((7-fluoro-2-methylquinazolin-4-yl)amino)-4-(((S)-2-fluoro-3-methoxypropyl) (4-(5,6,7,8-tetrahydro-1,8-naphthyridin-2-yl)butyl)amino) butanoic Acid], for which the IC50 is less than 50 nM.

On to `CO[C@H](C)CN(CCCCc1ccc2c(n1)NCCC2)CC[C@H](Nc1ncc(Br)cn1)C(=O)O` [Compound 70, (S)-2-((5-bromopyrimidin-2-yl)amino)-4-(((R)-2-methoxypropyl) (4-(5,6,7,8-tetrahydro-1,8-naphthyridin-2-yl)butyl)amino) butanoic Acid], for which the 50% inhibitory concentration (IC50) is less than 50 nM. Consider `O=C(O)[C@H](CCN(CCCCc1ccc2c(n1)NCCC2)CCOc1cncc(F)c1)Nc1ncnc2cccnc12` [Compound 60, (S)-4-((2-((5-fluoropyridin-3-yl)oxy)ethyl) (4-(5,6,7,8-tetrahydro-1,8-naphthyridin-2-yl)butyl)amino)-2-(pyrido[3,2-d]pyrimidin-4-ylamino) butanoic Acid], for which the IC50 was less than 50 nM. Take `O=C(O)[C@H](CCN(CCCCc1ccc2c(n1)NCCC2)CCOc1ccccc1)Nc1ncc(C2CC2)cn1` [Compound 117, (S)-2-((5-cyclopropylpyrimidin-2-yl)amino)-4-((2-phenoxyethyl) (4-(5,6,7,8-tetrahydro-1,8-naphthyridin-2-yl)butyl)amino) butanoic Acid]: the IC50 was less than 50 nM. For the compound `COC[C@@H](F)CN(CCCCc1ccc2c(n1)NCCC2)CC[C@H](Nc1nc(C)nc2ccccc12)C(=O)O` [Compound 46, (S)-4-(((S)-2-fluoro-3-methoxypropyl) (4-(5,6,7,8-tetrahydro-1,8-naphthyridin-2-yl)butyl)amino)-2-((2-methylquinazolin-4-yl)amino) butanoic Acid], the IC50 was less than 50 nM.

Turning to `CN(C)C(=O)CN(CCCCc1ccc2c(n1)NCCC2)CC[C@H](Nc1ccnc(C(F)(F)F)n1)C(=O)O` [Compound 145, (S)-4-((2-(dimethylamino)-2-oxoethyl) (4-(5,6,7,8-tetrahydro-1,8-naphthyridin-2-yl)butyl)amino)-2-((2-(trifluoromethyl)pyrimidin-4-yl)amino) butanoic Acid], the IC50 is less than 50 nM.

Regarding `O=C(O)[C@H](CCN(CCCCc1ccc2c(n1)NCCC2)CCOc1ccccc1)Nc1ccnc(C(F)(F)F)n1` [Compound 92, (S)-4-((2-phenoxyethyl) (4-(5,6,7,8-tetrahydro-1,8-naphthyridin-2-yl)butyl)amino)-2-((2-(trifluoromethyl)pyrimidin-4-yl)amino) butanoic Acid], the IC50 is less than 50 nM.

Regarding `O=C(O)[C@H](CCN(CCCF)CCCCc1ccc2c(n1)NCCC2)Nc1ncnc2ccccc12` [Compound 30, (S)-4-((3-fluoropropyl) (4-(5,6,7,8-tetrahydro-1,8-naphthyridin-2-yl)butyl)amino)-2-(quinazolin-4-ylamino) butanoic Acid], the IC50 is less than 50 nM. As to `O=C(O)[C@H](CCN(CCCCc1ccc2c(n1)NCCC2)CCOc1ccc(F)cc1)Nc1ncnc2[nH]ncc12` [Compound 143, (S)-2-((1H-pyrazolo[3,4-d]pyrimidin-4-yl)amino)-4-((2-(4-fluorophenoxy)ethyl) (4-(5,6,7,8-tetrahydro-1,8-naphthyridin-2-yl)butyl)amino) butanoic Acid], the IC50 fell in the range of 50 to 250 nM. In the case of `Cc1cc(C)n(CCN(CCCCc2ccc3c(n2)NCCC3)CC[C@H](Nc2ncnc3ccccc23)C(=O)O)n1` [Compound 45, (S)-4-((2-(3,5-dimethyl-1H-pyrazol-1-yl)ethyl) (4-(5,6,7,8-tetrahydro-1,8-naphthyridin-2-yl)butyl)amino)-2-(quinazolin-4-ylamino) butanoic Acid], the IC50 is less than 50 nM. As to `CS(=O)(=O)CCN(CCCCc1ccc2c(n1)NCCC2)CC[C@H](Nc1ccnc(C(F)(F)F)n1)C(=O)O` [Compound 104, (S)-4-((2-(methylsulfonyl)ethyl) (4-(5,6,7,8-tetrahydro-1,8-naphthyridin-2-yl)butyl)amino)-2-((2-(trifluoromethyl)pyrimidin-4-yl)amino) butanoic Acid], the IC50 is more than 1000 nM. As for `N#Cc1cnc(N[C@@H](CCN(CCCCc2ccc3c(n2)NCCC3)CCOc2ccc(F)cc2)C(=O)O)nc1` [Compound 138, (S)-2-((5-cyanopyrimidin-2-yl)amino)-4-((2-(4-fluorophenoxy)ethyl) (4-(5,6,7,8-tetrahydro-1,8-naphthyridin-2-yl)butyl)amino) butanoic Acid], the IC50 was less than 50 nM.
